Converted amounts (≈) assume the structure as drawn. Like-named read-outs stand apart in the source and are kept apart here. Where a SMILES comes first, the peptide text is derived from it.
Key:
[1] = system: B. subtilis; test: microbe, parasite or virus in culture; format: cell-based, Bacillus subtilis
Procedure, shortened: (§1)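 Broth microdilution in MH medium: strains diluted to 2×10^6 CFU were mixed with equal volumes of twofold serial peptide dilutions in MH medium. MIC was taken as the lowest peptide concentration preventing bacterial growth.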

[2] = system: MDREC 1229; format: cell-based, Escherichia coli
Procedure, shortened: (§2)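 Antibiotic MIC came from antibiotic dilutions added to bacteria (2×10^6 CFU/ml, MH medium) already combined with peptide serially diluted 2:1 from its own MIC. Swapping the roles of the two agents gave the peptide MIC.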

[3] = system: E. coli; format: cell-based, Escherichia coli; details: E. coli
Procedure, shortened: as §2

[4] = system: S. epidermidis; test: microbe, parasite or virus in culture; format: cell-based, Staphylococcus epidermidis
Procedure, shortened: as §1

[5] = system: MDREC 1229; test: microbe, parasite or virus in culture; format: cell-based, Escherichia coli
Procedure, shortened: as §1

[6] = system: E. coli; test: microbe, parasite or virus in culture; format: cell-based, Escherichia coli; details: 16 h
Procedure, shortened: as §1

[7] = system: MRSA 3126; format: cell-based, Staphylococcus aureus; details: 3126
Procedure, shortened: as §1

[8] = system: MRSA 3114; format: cell-based, Staphylococcus aureus; details: 3114
Procedure, shortened: as §1

[9] = system: MDRAB 12035; test: MIC of antibiotic during combined treatment with antimicrobial peptide; format: cell-based, Acinetobacter baumannii
Procedure, shortened: as §2

[10] = system: MDRST 8007; test: Minimal inhibitory concentration (MIC), single agent; format: cell-based, Salmonella typhimurium; details: agent alone
Procedure, shortened: as §1

[11] = system: MDRPA 2002; format: cell-based, Pseudomonas aeruginosa
Procedure, shortened: as §1

[12] = system: MDRPA 2003; format: cell-based, Pseudomonas aeruginosa
Procedure, shortened: as §1

[13] = system: MDRST 8009; format: cell-based, Salmonella typhimurium; details: agent alone
Procedure, shortened: as §1

[14] = system: P. aeruginosa; test: microbe, parasite or virus in culture; format: cell-based, Pseudomonas aeruginosa
Procedure, shortened: as §1

[15] = system: MDRAB 12035; test: MIC of antimicrobial peptide during combined treatment with antibiotic; format: cell-based, Acinetobacter baumannii
Procedure, shortened: as §2

[16] = system: A. baumannii; test: as above; format: cell-based, Acinetobacter baumannii
Procedure, shortened: as §2

[17] = system: MDREC 1238; format: cell-based, Escherichia coli
Procedure, shortened: as §1

[18] = system: MDRAB 12036; format: cell-based, Acinetobacter baumannii
Procedure, shortened: as §1

[19] = system: E. coli; test: MIC of antibiotic during combined treatment with antimicrobial peptide; format: cell-based, Escherichia coli; details: for Antibiotic MIC, Erythromycin / Antibiotic MIC, Linezolid / Antibiotic MIC, Vancomycin: E. coli
Procedure, shortened: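 MIC values for mixed peptide plus antibiotic solutions were measured in MH medium.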

[20] = with Erythromycin […] (Conc./MIC 1)
[21] = peptide treatment concentration 1 μg/ml
[22] = peptide treatment concentration 2 μg/ml
[23] = peptide treatment concentration 4 μg/ml
[24] = peptide treatment concentration 6 μg/ml
[25] = peptide treatment concentration 8 μg/ml
[26] = peptide treatment concentration 16 μg/ml
[27] = peptide treatment concentration 32 μg/ml
[28] = peptide treatment concentration 64 μg/ml
[29] = erythromycin 4 μg/ml (Conc./MIC 1/8)
[30] = erythromycin 8 μg/ml (Conc./MIC 1/4)
[31] = erythromycin 16 μg/ml (Conc./MIC 1/2)
[32] = erythromycin 32 μg/ml (Conc./MIC 1)
[33] = vancomycin 512 μg/ml (Conc./MIC 1/2)
[34] = vancomycin 1024 μg/ml (Conc./MIC 1)

Structure (SMILES): CC[C@H](C)[C@H](NC(=O)[C@H](CCCCN)NC(=O)[C@H](Cc1c[nH]c2ccccc12)NC(=O)[C@@H](N)CCCNC(=N)N)C(=O)N[C@@H](Cc1ccccc1)C(=O)N[C@@H](CCCCN)C(=O)N[C@@H](CCCCN)C(=O)N[C@H](C(=O)N1CCC[C@H]1C(=O)N[C@@H](CCCCN)C(=O)N[C@@H](Cc1ccccc1)C(=O)N[C@@H](CC(C)C)C(=O)N[C@@H](Cc1c[nH]cn1)C(=O)N[C@@H](CO)C(=O)N[C@@H](Cc1c[nH]c2ccccc12)C(=O)N[C@@H](CCCCN)C(=O)N[C@@H](CCCCN)C(=O)N[C@@H](Cc1ccccc1)C(N)=O)[C@@H](C)CC [PapMA-3, RWK IFK KIP KFL HSW KKF-NH2] (H-RWKIFKKIPKFLHSWKKF-NH2; N-terminus assumed)
- Minimal inhibitory concentration MIC [1]: >128 µg/mL
- Peptide MIC [2, 20]: 0 µg/mL
- Peptide MIC ([2]; with Linezolid 512 μg/ml (Conc./MIC 1)): 0 µg/mL
- Peptide MIC [3, 20]: 0 µg/mL
- Peptide MIC ([3]; with Linezolid […] (Conc./MIC 1)): 0 µg/mL
- Peptide MIC ([3]; with Vancomycin 1024 μg/ml (Conc./MIC 1)): 0 µg/mL
- Minimal inhibitory concentration MIC [4]: >128 µg/mL
- Minimal inhibitory concentration MIC [5]: 32 µg/mL (≈ 13.2 µM)
- Minimal inhibitory concentration MIC [6]: 32 µg/mL (≈ 13.2 µM)
- Minimal inhibitory concentration MIC [7]: >128 µg/mL
- Minimal inhibitory concentration MIC [8]: >128 µg/mL
- Erythromycin MIC during combined treatment with peptide [9, 21]: 32 µg/mL
- Linezolid MIC during combined treatment with peptide [9, 21]: >128 µg/mL
- Vancomycin MIC during combined treatment with peptide [9, 21]: >128 µg/mL
- Erythromycin MIC during combined treatment with peptide [9, 22]: 16 µg/mL
- Linezolid MIC during combined treatment with peptide [9, 22]: 128 µg/mL
- Vancomycin MIC during combined treatment with peptide [9, 22]: >128 µg/mL
- Erythromycin MIC during combined treatment with peptide [9, 23]: 8 µg/mL
- Linezolid MIC during combined treatment with peptide [9, 23]: 32 µg/mL
- Vancomycin MIC during combined treatment with peptide [9, 23]: 128 µg/mL
- Erythromycin MIC during combined treatment with peptide [9, 24]: 4 µg/mL
- Linezolid MIC during combined treatment with peptide [9, 24]: 32 µg/mL
- Vancomycin MIC during combined treatment with peptide [9, 24]: 32 µg/mL
- Erythromycin MIC during combined treatment with peptide [9, 25]: 0.25 µg/mL
- Linezolid MIC during combined treatment with peptide [9, 25]: 16 µg/mL
- Vancomycin MIC during combined treatment with peptide [9, 25]: 16 µg/mL
- Erythromycin MIC during combined treatment with peptide [9, 26]: 0 µg/mL
- Linezolid MIC during combined treatment with peptide [9, 26]: 0 µg/mL
- Vancomycin MIC during combined treatment with peptide [9, 26]: 0 µg/mL
- Erythromycin MIC during combined treatment with peptide [9, 27]: 0 µg/mL
- Linezolid MIC during combined treatment with peptide [9, 27]: 0 µg/mL
- Vancomycin MIC during combined treatment with peptide [9, 27]: 0 µg/mL
- Erythromycin MIC during combined treatment with peptide [9, 28]: 0 µg/mL
- Linezolid MIC during combined treatment with peptide [9, 28]: 0 µg/mL
- Vancomycin MIC during combined treatment with peptide [9, 28]: 0 µg/mL
- Minimal inhibitory concentration MIC [10]: 32 µg/mL (≈ 13.2 µM)
- Minimal inhibitory concentration MIC [11]: 16 µg/mL (≈ 6.62 µM)
- Minimal inhibitory concentration MIC [12]: 16 µg/mL (≈ 6.62 µM)
- Minimal inhibitory concentration MIC [13]: 64 µg/mL (≈ 26.5 µM)
- Minimal inhibitory concentration MIC [14]: 16 µg/mL (≈ 6.62 µM)
- Peptide MIC during treatment with erythromycin [15, 29]: 4 µg/mL
- Peptide MIC during treatment with erythromycin [15, 30]: 4 µg/mL
- Peptide MIC during treatment with erythromycin [15, 31]: 2 µg/mL
- Peptide MIC during treatment with erythromycin [15, 32]: 0 µg/mL
- Peptide MIC during treatment with linezolid ([15]; linezolid 64 μg/ml (Conc./MIC 1/8)): 4 µg/mL
- Peptide MIC during treatment with linezolid ([15]; linezolid 512 μg/ml (Conc./MIC 1)): 0 µg/mL
- Peptide MIC during treatment with linezolid ([15]; linezolid […] (Conc./MIC 1/2)): 1 µg/mL
- Peptide MIC during treatment with linezolid ([15]; linezolid […] (Conc./MIC 1/4)): 2 µg/mL
- Peptide MIC during treatment with vancomycin [15, 33]: 2 µg/mL
- Peptide MIC during treatment with vancomycin [15, 34]: 0.25 µg/mL
- Peptide MIC during treatment with vancomycin ([15]; vancomycin […] (Conc./MIC 1/4)): 2 µg/mL
- Peptide MIC during treatment with vancomycin ([15]; vancomycin […] (Conc./MIC 1/8)): 4 µg/mL
- Peptide MIC during treatment with antibiotic [16, 29]: 4 µg/mL
- Peptide MIC during treatment with antibiotic [16, 30]: 4 µg/mL
- Peptide MIC during treatment with antibiotic [16, 31]: 2 µg/mL
- Peptide MIC during treatment with antibiotic [16, 32]: 0 µg/mL
- Peptide MIC during treatment with antibiotic ([16]; linezolid 32 μg/ml (Conc./MIC 1/8)): 4 µg/mL
- Peptide MIC during treatment with antibiotic ([16]; linezolid 64 μg/ml (Conc./MIC 1/4)): 2 µg/mL
- Peptide MIC during treatment with antibiotic ([16]; linezolid […] (Conc./MIC 1)): 0 µg/mL
- Peptide MIC during treatment with antibiotic ([16]; linezolid […] (Conc./MIC 1/2)): 1 µg/mL
- Peptide MIC during treatment with antibiotic [16, 33]: 0.25 µg/mL
- Peptide MIC during treatment with antibiotic [16, 34]: 0 µg/mL
- Peptide MIC during treatment with antibiotic ([16]; vancomycin […] (Conc./MIC 1/4)): 0.25 µg/mL
- Peptide MIC during treatment with antibiotic ([16]; vancomycin […] (Conc./MIC 1/8)): 2 µg/mL
- Minimal inhibitory concentration MIC [17]: 64 µg/mL (≈ 26.5 µM)
- Minimal inhibitory concentration MIC [18]: 16 µg/mL (≈ 6.62 µM)
- Synergistic effect of antibacterial activity with existing antibiotics compared with PapMA-1 ([19]; E. coli and MDREC1229): level similar to that of the PapMA-1 peptide
- Antibiotic MIC, Erythromycin ([19]; erythromycin combined with peptide at 1 μg/ml): 64 µg/mL
- Antibiotic MIC, Erythromycin ([19]; erythromycin combined with peptide at 2 μg/ml): 32 µg/mL
- Antibiotic MIC, Erythromycin ([19]; erythromycin combined with peptide at 4 μg/ml): 16 µg/mL
- Antibiotic MIC, Erythromycin ([19]; erythromycin combined with peptide at 6 μg/ml): 4 µg/mL
- Antibiotic MIC, Erythromycin ([19]; erythromycin combined with peptide at 8 μg/ml): 1 µg/mL
- Antibiotic MIC, Erythromycin ([19]; erythromycin combined with peptide at 16 μg/ml): 0.125 µg/mL
- Antibiotic MIC, Erythromycin ([19]; erythromycin combined with peptide at 32 μg/ml): 0 µg/mL
- Antibiotic MIC, Erythromycin ([19]; erythromycin combined with peptide at 64 μg/ml): 0 µg/mL
- Antibiotic MIC, Linezolid ([19]; linezolid combined with peptide at 1 μg/ml): 128 µg/mL
- Antibiotic MIC, Linezolid ([19]; linezolid combined with peptide at 2 μg/ml): 64 µg/mL
- Antibiotic MIC, Linezolid ([19]; linezolid combined with peptide at 4 μg/ml): 32 µg/mL
- Antibiotic MIC, Linezolid ([19]; linezolid combined with peptide at 6 μg/ml): 32 µg/mL
- Antibiotic MIC, Linezolid ([19]; linezolid combined with peptide at 8 μg/ml): 16 µg/mL
- Antibiotic MIC, Linezolid ([19]; linezolid combined with peptide at 16 μg/ml): 2 µg/mL
- Antibiotic MIC, Linezolid ([19]; linezolid combined with peptide at 32 μg/ml): 0 µg/mL
- Antibiotic MIC, Linezolid ([19]; linezolid combined with peptide at 64 μg/ml): 0 µg/mL
- Antibiotic MIC, Vancomycin ([19]; vancomycin combined with peptide at 1 μg/ml): >128 µg/mL
- Antibiotic MIC, Vancomycin ([19]; vancomycin combined with peptide at 2 μg/ml): >128 µg/mL
- Antibiotic MIC, Vancomycin ([19]; vancomycin combined with peptide at 4 μg/ml): >128 µg/mL
- Antibiotic MIC, Vancomycin ([19]; vancomycin combined with peptide at 6 μg/ml): 128 µg/mL
- Antibiotic MIC, Vancomycin ([19]; vancomycin combined with peptide at 8 μg/ml): 32 µg/mL
- Antibiotic MIC, Vancomycin ([19]; vancomycin combined with peptide at 16 μg/ml): 8 µg/mL
- Antibiotic MIC, Vancomycin ([19]; vancomycin combined with peptide at 32 μg/ml): 0 µg/mL
- Antibiotic MIC, Vancomycin ([19]; vancomycin combined with peptide at 64 μg/ml): 0 µg/mL

Reference: patent publication US11214594B2, “Antimicrobial peptide having synergistic antibacterial effect with antibiotics on multidrug resistant bacteria, and use thereof” (priority 2016, dated 2022)
